Reference: the NIST ThermoML archive (doi:10.1016/j.fluid.2007.03.030)
± gives the expanded uncertainty stated by the source.

Columns and labels:
[1] = Liquid; for mass density: 298.15 K, 101.33 kPa; for vapor or sublimation pressure: Ebulliometric method (Recirculating still)
[2] = refractive index (Na D-line) (dimensionless); conditions: 298.15 K; 101.33 kPa; Liquid; Standard Abbe refractometry

Question: For `CCOCCO` [2-ethoxyethan-1-ol], which mass density [1] is on record?
Answer: 925.38 ± 0.29 kg/m3

Question: What about the “vapor or sublimation pressure” value ([1]; 345.63 K) of the same molecule?
Answer: 9.97 ± 0.2 kPa

Question: And the “vapor or sublimation pressure” value ([1]; 349.72 K)?
Answer: 11.98 ± 0.2 kPa

Question: What about the “vapor or sublimation pressure” value ([1]; 353.3 K) of the same molecule?
Answer: 13.98 ± 0.2 kPa

Question: And the “vapor or sublimation pressure” value ([1]; 356.42 K)?
Answer: 15.98 ± 0.2 kPa

Question: And the “vapor or sublimation pressure” value ([1]; 359.27 K)?
Answer: 17.98 ± 0.2 kPa

Question: What about the “vapor or sublimation pressure” value ([1]; 363.08 K) of the same molecule?
Answer: 20.96 ± 0.2 kPa

Question: And the “vapor or sublimation pressure” value ([1]; 365.34 K)?
Answer: 22.97 ± 0.2 kPa

Question: And the “vapor or sublimation pressure” value ([1]; 367.46 K)?
Answer: 24.98 ± 0.2 kPa

Question: What about the “vapor or sublimation pressure” value ([1]; 370.33 K) of the same molecule?
Answer: 27.95 ± 0.2 kPa

Question: What about the “vapor or sublimation pressure” value ([1]; 373 K) of the same molecule?
Answer: 30.94 ± 0.2 kPa

Question: What about the “vapor or sublimation pressure” value ([1]; 375.49 K) of the same molecule?
Answer: 33.97 ± 0.2 kPa

Question: And the “vapor or sublimation pressure” value ([1]; 378.51 K)?
Answer: 37.93 ± 0.2 kPa

Question: What about the “vapor or sublimation pressure” value ([1]; 381.26 K) of the same molecule?
Answer: 41.98 ± 0.2 kPa

Question: And the “vapor or sublimation pressure” value ([1]; 383.78 K)?
Answer: 45.88 ± 0.2 kPa

Question: What about the “vapor or sublimation pressure” value ([1]; 386.12 K) of the same molecule?
Answer: 49.91 ± 0.2 kPa

Question: What about the “vapor or sublimation pressure” value ([1]; 388.87 K) of the same molecule?
Answer: 54.89 ± 0.21 kPa

Question: What about the “vapor or sublimation pressure” value ([1]; 391.39 K) of the same molecule?
Answer: 59.83 ± 0.21 kPa

Question: And the “vapor or sublimation pressure” value ([1]; 393.83 K)?
Answer: 64.82 ± 0.21 kPa

Question: And the “vapor or sublimation pressure” value ([1]; 396.01 K)?
Answer: 69.65 ± 0.21 kPa

Question: What about the “vapor or sublimation pressure” value ([1]; 398.1 K) of the same molecule?
Answer: 74.57 ± 0.21 kPa

Question: And the “vapor or sublimation pressure” value ([1]; 400.12 K)?
Answer: 79.47 ± 0.21 kPa

Question: What about the “vapor or sublimation pressure” value ([1]; 402.11 K) of the same molecule?
Answer: 84.74 ± 0.21 kPa

Question: And the “vapor or sublimation pressure” value ([1]; 403.97 K)?
Answer: 89.84 ± 0.21 kPa

Question: And the “vapor or sublimation pressure” value ([1]; 405.76 K)?
Answer: 94.91 ± 0.21 kPa

Question: And the “vapor or sublimation pressure” value ([1]; 407.95 K)?
Answer: 101.3 ± 0.21 kPa

Question: What about the refractive index [2] of the same molecule?
Answer: 1.4062 ± 0.0005

Question: What does the source list for `CCCOCCC` [dipropyl ether]?
Answer: mass density [1]: 741.81 ± 0.56 kg/m3; vapor or sublimation pressure ([1]; 363.16 K): 101.3 ± 0.5 kPa; refractive index [2]: 1.3784 ± 0.0005

Question: Which results are given for `CCCO` [propan-1-ol]?
Answer: mass density [1]: 799.62 ± 0.48 kg/m3; vapor or sublimation pressure ([1]; 369.75 K): 101.3 ± 0.5 kPa; refractive index [2]: 1.3836 ± 0.0005
